The target of this experiment is T1, ERR1 (also known as ERR-α or ERR-1) (Homo sapiens, UniProt P11474).
T1 sequence (P11474 193-421 limits assumed): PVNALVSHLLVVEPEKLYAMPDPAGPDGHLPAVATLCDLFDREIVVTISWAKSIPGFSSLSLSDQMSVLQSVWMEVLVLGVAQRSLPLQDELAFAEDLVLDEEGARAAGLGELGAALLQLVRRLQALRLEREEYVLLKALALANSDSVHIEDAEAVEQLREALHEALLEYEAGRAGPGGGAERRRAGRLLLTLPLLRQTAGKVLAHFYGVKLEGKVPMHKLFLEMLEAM
Kind of experiment: TR-FRET assay (disruption of co-activator peptide binding to ERR1 LBD). In kind it is biochemical. Conditions: 6 nM 6His-ERR1LBD, 6 nM GST-SRC-2 peptide; average of 3 independent experiments. On the procedure:
Time-Resolved Fluorescence Resonance Energy Transfer (TR-FRET) experiments were performed to examine the functional response of ERR1 (also known as ERR-α or ERR-1) ligands. The TR-FRET assay described herein relied on the conformation of ERR1 for binding to a co-activator peptide: when a test compound binds to ERR1 and alters its conformation, it can disrupt the binding of the co-activator peptide. The components of this homogeneous secondary assay included: the ^6His-tagged-ERR1LBD, a GST-labeled-hSRC2 co-activator polypeptide and a fluorescent donor/acceptor pair from CIS bio international htrf/bioassays (Bedford, Mass.) using both an α-GST Europium (Eu) Cryptate label and an α^6His-XL665 (allophycocyanin) fluorophore.
For TR-FRET measurements, the reaction was buffered in 25 mM Tris pH 8, 2.5 mM Hepes, 20 mM KCl, 1 mM DTT, and 0.05 mg/mL BSA (delipidated). The final concentrations of reagents were 6 nM of ERR1LBD, 6 nM GST-SRC-2 peptide, 30 nM Eu cryptate, and 7.5 nM a^6His-XL665. Reactions were allowed to reach equilibrium at 25° C. for 4-18 h before collecting data on the Analyst from LJL Biosystems (Molecular Devices Sunnyvale, Calif.). […] Dose response curves were fitted using a hyperbolic equation and the data reported is the average of 3 independent experiments.
A general note: TR-FRET usually uses a lanthanide donor and a delayed reading to cut background.
Broadly, the EC50 is the concentration giving half of the maximal effect. Compound `O=C(O)/C=C/CN1C(=O)S/C(=C\c2ccc3c(cnn3Cc3ccc(Cl)cc3C(F)(F)F)c2)C1=O` [Compound 376, (2E)-4-[(5Z)-5-({1-[4-Chloro-2-(trifluoromethyl)benzyl]-1H-indazol-5-yl}methylidene)-2,4-dioxo-1,3-thiazolidin-3-yl]but-2-enoic acid] came in with an EC50 of 65 nM. Under `O=C1S/C(=C\c2ccc3c(cnn3Cc3ccc(Cl)cc3C(F)(F)F)c2)C(=O)N1CC1(F)CCN(CCO)CC1` [Compound 305, (5Z)-5-({1-[4-Chloro-2-(trifluoromethyl)benzyl]-1H-indazol-5-yl}methylidene)-3-{[4-fluoro-1-(2-hydroxyethyl)piperidin-4-yl]methyl}-1,3-thiazolidine-2,4-dione] stands 3 nM; under `CC(C)[C@H](N)CN1C(=O)S/C(=C\c2ccc3c(cnn3Cc3ccc(Cl)cc3C(F)(F)F)c2)C1=O` [Compound 162, (5Z)-3-[(2S)-2-Amino-3-methylbutyl]-5-({1-[4-chloro-2-(trifluoromethyl)benzyl]-1H-indazol-5-yl}methylidene)-1,3-thiazolidine-2,4-dione], 32 nM. For `COC(=O)C1(N2C(=O)S/C(=C\c3ccc4c(cnn4Cc4ccc(Cl)cc4C(F)(F)F)c3)C2=O)CCCC1` [Compound 232, Methyl 1-[(5Z)-5-({1-[4-chloro-2-(trifluoromethyl)benzyl]-1H-indazol-5-yl}methylidene)-2,4-dioxo-1,3-thiazolidin-3-yl]cyclopentanecarboxylate], a half-maximal response (EC50) required 107 nM. Regarding `CC(=O)NN1C(=O)S/C(=C\c2ccc3c(cnn3Cc3ccc(Cl)cc3C(F)(F)F)c2)C1=O` [Compound 356, N-[(5Z)-5-({1-[4-Chloro-2-(trifluoromethyl)benzyl]-1H-indazol-5-yl}methylidene)-2,4-dioxo-1,3-thiazolidin-3-yl]acetamide], a half-maximal response (EC50) required 14 nM.

For `COC(=O)C(Cc1cccnc1)N1C(=O)S/C(=C\c2ccc3c(cnn3Cc3ccc(Cl)cc3C(F)(F)F)c2)C1=O` (centres unmarked) [Compound 217, Methyl 2-[(5Z)-5-({1-[4-chloro-2-(trifluoromethyl)benzyl]-1H-indazol-5-yl}methylidene)-2,4-dioxo-1,3-thiazilidin-3-yl]-3-pyridin-3-ylpropanoate], the EC50 came out at 41 nM. Under `O=C(CN1C(=O)S/C(=C\c2ccc3c(ccn3Cc3ccc(C(F)(F)F)cc3C(F)(F)F)c2)C1=O)N1CCOCC1` [Compound 241, (5Z)-5-[(1-{[2,4-Bis(trifluoromethyl)phenyl]methyl}-1H-indol-5-yl)methylidene]-3-(2-morpholin-4-yl-2-oxoethyl)-1,3-thiazolidine-2,4-dione] stands 100 nM; under `CN(C)CCCN1C(=O)S/C(=C\c2ccc3c(ccn3Cc3ccc(C#N)cc3C(F)(F)F)c2)C1=O` [Compound 247, 4-({5-[(Z)-{3-[3-(Dimethylamino)propyl]-2,4-dioxo-1,3-thiazolidin-5-ylidene}methyl]-1H-indol-1-yl}methyl)-3-(trifluoromethyl)benzonitrile], 300 nM; under `CS(=O)(=O)NN1C(=O)S/C(=C\c2ccc3c(c2)c(C#N)nn3Cc2ccc(C(F)(F)F)cc2C(F)(F)F)C1=O` [Compound 369, N-[(5Z)-5-({1-[2,4-Bis(trifluoromethyl)benzyl]-3-cyano-1H-indazol-5-yl}methylidene)-2,4-dioxo-1,3-thiazolidin-3-yl]methanesulfonamide], 64 nM. The value for `Cc1nn(Cc2ccc(Cl)cc2C(F)(F)F)c2ccc(/C=C3\SC(=O)N([C@@H]4CCNC[C@H]4F)C3=O)cc12` (relative stereo) [Compound 333, (5Z)-5-({1-[4-Chloro-2-(trifluoromethyl)benzyl]-3-methyl-1H-indazol-5-yl}methylidene)-3-[trans-3-fluoropiperidin-4-yl]-1,3-thiazolidine-2,4-dione] was 48 nM; that for `CCOc1nn(Cc2ccc(Cl)cc2C(F)(F)F)c2ccc(/C=C3\SC(=O)N(CCN4CCCC4)C3=O)cc12` [Compound 33, (5Z)-5-({1-[4-Chloro-2-(trifluoromethyl)benzyl]-3-ethoxy-1H-indazol-5-yl}methylidene)-3-(2-pyrrolidin-1-ylethyl)-1,3-thiazolidine-2,4-dione] was 185 nM; that for `CCN1CCC(N2C(=O)S/C(=C\c3ccc4c(cnn4Cc4ccc(OC)cc4C(F)(F)F)c3)C2=O)CC1` [Compound 28, (5Z)-3-(1-Ethylpiperidin-4-yl)-5-({1-[4-methoxy-2-(trifluoromethyl)benzyl]-1H-indazol-5-yl}methylidene)-1,3-thiazolidine-2,4-dione] was 14 nM. The value for `CN1CCC(CN2C(=O)S/C(=C\c3ccc4c(cnn4Cc4ccc(Cl)cc4C(F)(F)F)c3)C2=O)CC1` [Compound 134, (5Z)-5-({1-[4-Chloro-2-(trifluoromethyl)benzyl]-1H-indazol-5-yl}methylidene)-3-[(1-methylpiperidin-4-yl)methyl]-1,3-thiazolidine-2,4-dione] was 45 nM; that for `O=C(O)C(Cc1cccnc1)N1C(=O)S/C(=C\c2ccc3c(cnn3Cc3ccc(Cl)cc3C(F)(F)F)c2)C1=O` (centres unmarked) [Compound 225, 2-[(5Z)-5-({1-[4-Chloro-2-(trifluoromethyl)benzyl]-1H-indazol-5-yl}methylidene)-2,4-dioxo-1,3-thiazolidin-3-yl]-3-pyridin-3-ylpropanoic acid] was 32 nM. Take `NC1(CCN2C(=O)S/C(=C\c3ccc4c(cnn4Cc4ccc(C(F)(F)F)cc4C(F)(F)F)c3)C2=O)CCOCC1` [Compound 313, (5Z)-3-[2-(4-Aminotetrahydro-2H-pyran-4-yl)ethyl]-5-({1-[2,4-bis(trifluoromethyl)benzyl]-1H-indazol-5-yl}methylidene)-1,3-thiazolidine-2,4-dione]: a half-maximal effect (EC50) was put at 700 nM. Consider `O=C1S/C(=C\c2ccc3c(cnn3Cc3ccc(Cl)cc3C(F)(F)F)c2)C(=O)N1C[C@@H]1CN2CCOC[C@H]2CO1` [Compound 205, (5Z)-5-({1-[4-Chloro-2-(trifluoromethyl)benzyl]-1H-indazol-5-yl}methylidene)-3-[(3S,9aS)-hexahydro-1H-[1,4]oxazino[3,4-c] [1,4]oxazin-3-ylmethyl]-1,3-thiazolidine-2,4-dione], for which a half-maximal response (EC50) required 22 nM. Compared with the last compound, the EC50 is about 32-fold lower. `CC(=O)N1CCN(CCN2C(=O)S/C(=C\c3ccc4c(cnn4Cc4ccc(Cl)cc4C(F)(F)F)c3)C2=O)CC1` [Compound 117, (5Z)-3-[2-(4-Acetylpiperazin-1-yl)ethyl]-5-({1-[4-chloro-2-(trifluoromethyl)benzyl]-1H-indazol-5-yl}methylidene)-1,3-thiazolidine-2,4-dione] gave an EC50 of 86 nM. The value for `O=C1S/C(=C\c2ccc3c(cnn3Cc3ccc(Cl)cc3C(F)(F)F)c2)C(=O)N1CCN1CCCC(F)C1` (centres unmarked) [Compound 74, (5Z)-5-({1-[4-Chloro-2-(trifluoromethyl)benzyl]-1H-indazol-5-yl}methylidene)-3-[2-(3-fluoropiperidin-1-yl)ethyl]-1,3-thiazolidine-2,4-dione] was 110 nM; that for `NS(=O)(=O)CN1C(=O)S/C(=C\c2ccc3c(cnn3Cc3ccc(C(F)(F)F)cc3C(F)(F)F)c2)C1=O` [Compound 68] was 124 nM; that for `O=C1S/C(=C\c2ccc3c(cnn3Cc3ccc(C(F)(F)F)cc3C(F)(F)F)c2)C(=O)N1[C@@H]1CNCC[C@@H]1F` (relative stereo) [Compound 200, (5Z)-5-({1-[2,4-Bis(trifluoromethyl)benzyl]-1H-indazol-5-yl}methylidene)-3-(cis-4-fluoropiperidin-3-yl)-1,3-thiazolidine-2,4-dione] was 14 nM.

`O=C(O)CN1CCC[C@H]1CN1C(=O)S/C(=C\c2ccc3c(cnn3Cc3ccc(Cl)cc3C(F)(F)F)c2)C1=O` [Compound 151, [(2S)-2-{[(5Z)-5-({1-[4-Chloro-2-(trifluoromethyl)benzyl]-1H-indazol-5-yl}methylidene)-2,4-dioxo-1,3-thiazolidin-3-yl]methyl}pyrrolidin-1-yl]acetic acid] returned an EC50 of 30 nM. The value for `CCN1CCC(F)(CN2C(=O)S/C(=C\c3ccc4c(cnn4Cc4ccc(Cl)cc4C(F)(F)F)c3)C2=O)CC1` [Compound 306, (5Z)-5-({1-[4-Chloro-2-(trifluoromethyl)benzyl]-1H-indazol-5-yl}methylidene)-3-[(1-ethyl-4-fluoropiperidin-4-yl)methyl]-1,3-thiazolidine-2,4-dione] was 71 nM. The value for `O=C1S/C(=C\c2ccc3c(c2)nnn3Cc2ccc(Cl)cc2C(F)(F)F)C(=O)N1Cc1c[nH]nn1` [Compound 262, (5Z)-5-({1-[4-Chloro-2-(trifluoromethyl)benzyl]-1H-benzotriazol-5-yl}methylidene)-3-(1H-1,2,3-triazol-4-ylmethyl)-1,3-thiazolidine-2,4-dione] was 24 nM.

The values above are taken from patent publication US8796256B2 (Janssen Pharmaceutica NV, priority 2010, dated 2014).
